Results published in the NIST ThermoML archive (doi:10.1016/j.jct.2009.06.001).
Numbers after ± are expanded uncertainties.

Assays:
[1] = mn = molality of the nth substance listed, in mol/kg; details: 298.15 K, 101 kPa, Liquid; for speed of sound: Sing-around technique in a fixed-path interferometer; for mass density: Vibrating tube method
[2] = 298.15 K, 101.33 kPa, Liquid; for speed of sound: Sing-around technique in a fixed-path interferometer; for mass density: Vibrating tube method

C1CCCCC1 [cyclohexane] + c1ccccc1
[1]
Details	mass density [kg/m3]	speed of sound [m/s]
m2 = 0.162	774.73 ± 1.6	1254.7 ± 1.8
m2 = 0.3316	775.59 ± 1.6	1254.2 ± 1.8
m2 = 0.5187	776.54 ± 1.6	1253.5 ± 1.8
m2 = 0.6616	777.26 ± 1.6	1253.2 ± 1.8
m2 = 0.8272	778.07 ± 1.6	1252.7 ± 1.8

c1ccc2c(c1)ccc1ccccc12 [phenanthrene] + CCCCCCC
[1]
Details	mass density [kg/m3]	speed of sound [m/s]
m1 = 0.0349	681.3 ± 1.6	1133.2 ± 1.8
m1 = 0.0513	682.12 ± 1.6	1134 ± 1.8
m1 = 0.0739	683.26 ± 1.6	1135 ± 1.8
m1 = 0.0812	683.59 ± 1.6	1135.3 ± 1.8
m1 = 0.1012	684.63 ± 1.6	1136.2 ± 1.8

c1ccc(-c2cccc(-c3ccccc3)c2)cc1 [m-terphenyl] + CCCCCCC
[1]
Details	mass density [kg/m3]	speed of sound [m/s]
m1 = 0.0245	681.04 ± 1.6	1133 ± 1.8
m1 = 0.04	682 ± 1.6	1133.8 ± 1.8
m1 = 0.0536	682.83 ± 1.6	1134.6 ± 1.8
m1 = 0.0666	683.63 ± 1.6	1135.3 ± 1.8
m1 = 0.076	684.21 ± 1.6	1135.9 ± 1.8

CCCCCCC [heptane]
[2]
Details	mass density [kg/m3]	speed of sound [m/s]
–	679.55 ± 1.6	1131.4 ± 1.8

c1ccccc1 [benzene] + CCCCCCC
[1]
Details	mass density [kg/m3]	speed of sound [m/s]
m1 = 0.1915	681.6 ± 1.6	1132.3 ± 1.8
m1 = 0.3783	683.56 ± 1.6	1133.2 ± 1.8
m1 = 0.5615	685.43 ± 1.6	1133.9 ± 1.8
m1 = 0.7515	687.34 ± 1.6	1134.8 ± 1.8
m1 = 0.943	689.24 ± 1.6	1135.8 ± 1.8

c1ccc(-c2ccccc2-c2ccccc2)cc1 [o-terphenyl] + C1CCCCC1
[1]
Details	mass density [kg/m3]	speed of sound [m/s]
m1 = 0.0245	775.07 ± 1.6	1256.1 ± 1.8
m1 = 0.0451	776.06 ± 1.6	1256.8 ± 1.8
m1 = 0.0688	777.19 ± 1.6	1257.5 ± 1.8
m1 = 0.093	778.35 ± 1.6	1258.4 ± 1.8
m1 = 0.1144	779.36 ± 1.6	1259 ± 1.8

c1ccc(-c2cccc(-c3ccccc3)c2)cc1 [m-terphenyl] + C1CCCCC1
[1]
Details	mass density [kg/m3]	speed of sound [m/s]
m1 = 0.0253	775.15 ± 1.6	1256.5 ± 1.8
m1 = 0.0482	776.28 ± 1.6	1257.4 ± 1.8
m1 = 0.0693	777.33 ± 1.6	1258.2 ± 1.8
m1 = 0.0928	778.48 ± 1.6	1259.2 ± 1.8
m1 = 0.1161	779.62 ± 1.6	1260.1 ± 1.8

C1CCCCC1 [cyclohexane]
[2]
Details	mass density [kg/m3]	speed of sound [m/s]
–	773.87 ± 1.6	1255.3 ± 1.8

c1ccc(-c2ccccc2-c2ccccc2)cc1 [o-terphenyl] + CCCCCCC
[1]
Details	mass density [kg/m3]	speed of sound [m/s]
m1 = 0.0267	681.11 ± 1.6	1132.8 ± 1.8
m1 = 0.0392	681.85 ± 1.6	1133.5 ± 1.8
m1 = 0.0544	682.75 ± 1.6	1134.1 ± 1.8
m1 = 0.0652	683.4 ± 1.6	1134.6 ± 1.8
m1 = 0.0763	684.05 ± 1.6	1135.2 ± 1.8

c1ccc(-c2ccccc2)cc1 [biphenyl] + CCCCCCC
[1]
Details	mass density [kg/m3]	speed of sound [m/s]
m1 = 0.0409	681.02 ± 1.6	1133 ± 1.8
m1 = 0.0772	682.37 ± 1.6	1134.4 ± 1.8
m1 = 0.113	683.67 ± 1.6	1135.6 ± 1.8
m1 = 0.1561	685.21 ± 1.6	1137 ± 1.8
m1 = 0.1949	686.6 ± 1.6	1138.3 ± 1.8

c1ccc(-c2ccccc2)cc1 [biphenyl] + C1CCCCC1
[1]
Details	mass density [kg/m3]	speed of sound [m/s]
m1 = 0.0342	774.82 ± 1.6	1256 ± 1.8
m1 = 0.0676	775.74 ± 1.6	1256.7 ± 1.8
m1 = 0.1061	776.79 ± 1.6	1257.5 ± 1.8
m1 = 0.1335	777.52 ± 1.6	1258.1 ± 1.8
m1 = 0.1732	778.61 ± 1.6	1259 ± 1.8

c1ccc2ccccc2c1 [naphthalene] + CCCCCCC
[1]
Details	mass density [kg/m3]	speed of sound [m/s]
m1 = 0.0934	682.41 ± 1.6	1134.3 ± 1.8
m1 = 0.1975	685.54 ± 1.6	1137.2 ± 1.8
m1 = 0.2708	687.7 ± 1.6	1139.1 ± 1.8
m1 = 0.3725	690.68 ± 1.6	1141.8 ± 1.8
m1 = 0.4561	693.03 ± 1.6	1144 ± 1.8

c1ccc2ccccc2c1 [naphthalene] + C1CCCCC1
[1]
Details	mass density [kg/m3]	speed of sound [m/s]
m1 = 0.0805	775.71 ± 1.6	1256.5 ± 1.8
m1 = 0.1659	777.64 ± 1.6	1257.8 ± 1.8
m1 = 0.2522	779.56 ± 1.6	1259.1 ± 1.8
m1 = 0.3257	781.18 ± 1.6	1260.2 ± 1.8
m1 = 0.4055	782.91 ± 1.6	1261.5 ± 1.8

c1ccc2c(c1)ccc1ccccc12 [phenanthrene] + C1CCCCC1
[1]
Details	mass density [kg/m3]	speed of sound [m/s]
m1 = 0.0343	775.27 ± 1.6	1256.4 ± 1.8
m1 = 0.0591	776.28 ± 1.6	1257.2 ± 1.8
m1 = 0.0896	777.54 ± 1.6	1258.2 ± 1.8
m1 = 0.1162	778.63 ± 1.6	1259 ± 1.8
m1 = 0.1455	779.78 ± 1.6	1259.8 ± 1.8
